Assay results taken from US9011853B2, “B7-H4 fusion proteins and methods of use thereof” (Amplimmune, Inc., priority 2009, dated 2015).

Assays:
SJL mice = test: Delayed-type hypersensitivity (DTH) responses, 24 hr ear swelling assay in R-EAE mice; type: in vivo, mouse; settings: given from Day 0, 5 injections, both 3 mg/kg (60 μg) and 15 mg/kg (300 μg); ear challenge Day 10 (FIG. 39)
Protocol: DTH responses were quantitated using a 24 hr ear swelling assay as previously described. Pre-challenge ear thickness was determined using a Mitutoyo model 7326 engineer's micrometer (Schlesinger's Tools, Brooklyn, N.Y.). Immediately thereafter, DTH responses were elicited by injecting 10 μg of peptide in 10 μL of PBS into the dorsal surface of the ear using a 100 μL Hamilton syringe fitted with a 30 gauge needle. The increase in ear thickness over pre-challenge measurements was determined 24 hr after ear challenge. Results are expressed in units of 10^−4 inches±SEM. […] Significance of ear swelling in murine B7-H4-Ig treated mice over Control IgG injected mice was assessed by the Student's t test.
To determine the effect of B7-H4-Ig on blocking CD4^+ T cell mediated activity specific for the primary myelin-derived epitope PLP139-151 and epitope spreading, peptide-specific responses in vivo via DTH on all 4 treatment groups were analyzed. Mice were ear challenged with 10 μg of the indicated peptides on Day 50, and swelling was measured 24 h later.
To clarify the effect of B7-H4-Ig on the EAE acute phase, a 2nd in vivo experiment was conducted in the PLP139-151 induced MAE model. […] Mice were ear challenged with 10 μg of PLP139-151 on Day 10, and swelling was measured 24 h later. […]

[1] = test system: naïve CD4^+CD62L^+ T cells (responder) with nTreg cells; test: In vitro nTreg suppression assay; type: cell-based, mouse; design: CD4+ T cell activation and proliferation: dose or concentration left out as unconfirmed
Excerpt: Spleens and lymph nodes were harvested from 10 FoxP3-GFP mice on a B6 background. […] Naïve CD4^+ T cells were purified from the rest of the cells as described above. A total of 6.2×10^8 naïve CD4^+ T cells were collected. 5×10^7 cells were set aside to be effector T cells in the experiment. The remainder of the cells (5.7×10^8) were stained with anti-CD4 PE-Cy7, and the PE-Cy7^+/GFP^+ cells were sorted via MoFlo. A total of 4×10^6 nTreg (CD4^+/FoxP3^+) cells were collected from the MoFlo at 99% purity. […] The culture wells also received various ratios of nTreg cells: B7-H4-Ig. nTreg cells (CD4^+/CD62L^+/FoxP3-GFP^+) were isolated from B6/FoxP3-GFP mice by MoFLo sorting. Naïve GFP^− T cells CD4^+/CD62L^+/FoxP3-GFP^−) were used as responder cells. Increasing numbers of the nTreg cells were added to constant numbers of naïve CD4^+CD62L^+ T cells, irradiated splenocytic APCs, and anti-CD3 (FIG. 31). […]

[2] = Clearance from circulation; type: in vivo; settings: compared with control IgG
[3] = test system: CD4^+CD62L^+ naïve T cells; test: In vitro Th17 polarization: proliferation and cytokine production; type: cell-based, mouse; settings: 0, 0.1, 1 or 10 μg/mL in solution
Protocol: Mouse splenocytes were first removed isolated from DO11.10 mice, which express an MHC class II restricted T cell receptor specific for OVA323-339. Mouse CD4^+ T cells were purified using a Miltenyi CD4^+ T cell negative isolation kit (Cat#130-090-860). Naïve CD4^+ T cells were further purified using the Miltenyi anti-CD62L positive selection magnetic beads (cat#130-049-701).
CD4^+ CD62L^+ naïve T cells with or without CD25^+ T cells were cultured in serum free HL-1 media in the presence of rTGF-β (10 ng/mL), IL-6 (50 ng/mL), IL-23 (4 ng/mL), anti-IL-4 (1 μg/mL), anti-IFN-γ (1 μg/mL) and anti-IL-2 (1 μg/mL). To provide murine B7-H4-Ig in an immobilized format, 96-well flat bottom plates were first coated with murine B7-H4-Ig, 100 μl per well at 1 μg/mL, and incubated at 37° C. for 2 hours. […] For non-specific antigen activation, Mouse CD3/CD28 T Cell Expander beads (Dynabeads®; Invitrogen, Cat#11452D) was added into each well, at a 1:1 cell to bead ratio. […]
[^3H]-Thymidine (1 μCi/well) was added into each well 24 hr post co-incubation. Proliferation was determined by uptake of [^3H]-thymidine detected at 48 hr post [^3H]-thymidine addition using a Topcount Microplate Scintillation Counter (Packard Instruments, Meridan, Conn.). Results are expressed as the mean of triplicate cultures±SEM. […]

| Substance | DTH response to PLP139-151 peptide versus OVA323-339 peptide (SJL mice) | anti-CD3 induced T cell activation ([1]; 1:0.12 and 1:0.25 ratios of T cell responder:nTreg, 5 or 10 μg/mL (FIG. 32)) | CD4+ T cell activation and proliferation ([1]; absence of nTreg cells (ratio 1:0), 0, 1, 5, or 10, anti-CD3 (FIG. 32)) | clearance from circulation [2] | IL-17 production in Th17 cells ([3]; anti-CD3/CD28 beads (FIG. 28)) | murine Th17 proliferation ([3]; anti-CD3/CD28 beads, dose dependent (FIG. 26)) |
| --- | --- | --- | --- | --- | --- | --- |
| B7-H4-Ig: B7-H4 extracellular domain fused to Ig Fc; bare label is the human protein in Example 3, murine protein in Examples 1, 2, 5, 7-11 | significantly inhibited | completely blocked anti-CD3 induced T cell activation | suppressed CD4^+ T cell activation and proliferation in a dose dependent manner | cleared from circulation more rapidly than control IgG |  |  |
| Human B7-H4-Ig: human B7-H4 extracellular domain fused to hinge, CH2 and CH3 regions of human immunoglobulin Cγ1 chain; representative SEQ ID NOs:114-137 |  |  |  |  | reduced | blocked murine Th1/Th17 proliferation |
